These results are taken from US8455469B2, “Use of norgestimate as a selective inhibitor of TRPC3, TRPC6 and TRPC7 ion channels” (Sanofi, priority 2007, dated 2013).

The term IC50 denotes the concentration that inhibits the measured activity by half.

The target of one test is T1, TRPC6 (Homo sapiens, UniProt Q9Y210).
T1 construct: expressed in transfected cells; host or cells: HEK293 (inducible expression)
T1 sequence (Q9Y210 1-931): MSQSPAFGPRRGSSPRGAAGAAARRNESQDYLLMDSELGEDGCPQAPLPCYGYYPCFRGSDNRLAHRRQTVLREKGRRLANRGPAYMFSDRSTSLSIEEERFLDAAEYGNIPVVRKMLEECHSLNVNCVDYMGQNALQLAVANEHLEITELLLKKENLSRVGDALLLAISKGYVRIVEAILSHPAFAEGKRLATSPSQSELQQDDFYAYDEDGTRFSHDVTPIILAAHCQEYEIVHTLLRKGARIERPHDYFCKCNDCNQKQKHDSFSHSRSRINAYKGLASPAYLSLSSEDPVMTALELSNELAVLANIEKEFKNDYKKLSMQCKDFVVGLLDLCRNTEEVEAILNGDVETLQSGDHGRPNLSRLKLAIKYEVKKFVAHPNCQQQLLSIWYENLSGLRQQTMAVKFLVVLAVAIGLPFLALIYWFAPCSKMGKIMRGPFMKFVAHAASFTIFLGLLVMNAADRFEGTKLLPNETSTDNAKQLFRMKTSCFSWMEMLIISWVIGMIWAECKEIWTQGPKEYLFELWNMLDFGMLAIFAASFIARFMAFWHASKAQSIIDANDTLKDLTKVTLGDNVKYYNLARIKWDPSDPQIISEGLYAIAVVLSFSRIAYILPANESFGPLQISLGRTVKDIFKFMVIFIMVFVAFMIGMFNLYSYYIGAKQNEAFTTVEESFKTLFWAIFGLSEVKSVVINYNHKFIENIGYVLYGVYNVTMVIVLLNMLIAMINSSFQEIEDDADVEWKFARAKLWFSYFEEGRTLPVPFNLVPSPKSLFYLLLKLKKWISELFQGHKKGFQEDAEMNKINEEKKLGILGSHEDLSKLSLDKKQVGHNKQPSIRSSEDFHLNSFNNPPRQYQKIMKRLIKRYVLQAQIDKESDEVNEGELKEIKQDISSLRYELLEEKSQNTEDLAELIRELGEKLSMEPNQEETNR
The test is described as follows: FLIPR Ca2+ influx measurement, OAG-activated TRPC6 HEK293 cells. Type of test: cell-based. The note with it: 30 μM OAG. The text has this: In general, cells are provided which express a TRPC channel. Such cells can be produced using genetic methods known to a person skilled in the art. After having induced the expression of the TRPC channel, cells are usually plated into e.g. microtiter plates and grown. Usually the cells grow at the bottom of multiwell plates and are fixed. Thereafter, the cells are generally washed and loaded with a dye in a suitable loading buffer, preferably with a fluorescent dye such as fluo4am. After having removed the loading buffer, the cells are incubated with the test compound or modulator, in particular with a biochemical or chemical test compound as described above, e.g. in the form of a chemical compound library. Ca^2+ measurements can be carried out using e.g. a Fluorescence Imaging Plate Reader (FLIPR). To stimulate Ca^2+ influx through the TRPC channel a channel activator such as OAG should generally be applied.
TRPC3 and TRPC6 were directly activated by application of oleoyl-2-acetyl-sn-glycerol (OAG), a membrane permeable diacylglycerol analogue.
(A, C) Time-dependent changes of intracellular Ca^2+ concentration ([Ca^2+]i) of fluo-4-loaded induced TRPC3 HEK293 cells (A) and TRPC6 HEK293 cells (C). […] Measurements were performed in 96er well plates using FLIPR (Molecular Devices, Sunnyvale, Calif., USA) (B, D) Determination of norgestimates IC50 value on TRPC3 (B) and TRPC6 (D). […]

In test [1] the test system is native heteromeric TRPC6/7 channels. The test can be described thus: Whole-cell patch clamp of AVP-stimulated A7r5 cells. It counts as cell-based, rat. The note with it: 10 μM. As for the experimental part: The A7r5 cell line (derived from rat thoracic aorta smooth muscle cells) is a model system to investigate endogenous TRPC channels (Jung et al., 2002; Soboloff et al., 2005). The channels were indirectly stimulated by Arg^8-vasopressin (AVP), a vasoconstricting peptide that activates the endogenous vasopressin V1A receptor in these cells (Thibonnier et al., 1991).
Perfusion of A7r5 cells with 100 nM AVP stimulated non-selective cationic currents that bore the biophysical hallmarks of TRPC channels (FIG. 5). […] When 10 μM norgestimate were applied to AVP-stimulated A7r5 cells, 86.5±6.0% (n=8) of the current measured at resting membrane potential were blocked and this effect was reversible (FIG. 5).
Effect of 10 μM norgestimate (NG) on whole-cell currents evoked by 100 nM AVP on A7r5 cells in standard extracellular solution (200 μM [Ca^2+]o). Whole cell currents recorded at −60 mV (left panels) and the corresponding I-V relationships are shown (right panels). The curves were obtained during voltage ramps from −100 to +80 mV. L-type voltage-gated Ca^2+ channels were blocked by 5 μM nimodipine (ND) during the whole experiment.
Background: The patch-clamp technique gives a direct electrical read-out from membranes.

In test [2] the test system is TRPC3/6/7 subfamily members versus TRPC4/5 subfamily members. The test can be described thus: Fluorometric measurements, potency compared between TRPC subfamilies. Conditions: based on calculated inhibition by 10 μM norgestimate. Type of test: cell-based. As for the experimental part:
The 4-fold more potency of norgestimate on TRPC3/6/7 subfamily members than on TRPC4/5 subfamily members was evaluated with fluorometric measurements and based on the calculated inhibition by 10 μM norgestimate.

Take `C#C[C@]1(OC(C)=O)CC[C@H]2[C@@H]3CCC4=C/C(=N/O)CC[C@@H]4[C@H]3CC[C@@]21CC` [norgestimate, D-17β-acetoxy-B-ethyl-17α ethinyl-gon-4-en-3-one oxime]: at TRPC6 (FLIPR, n=4), half-maximal inhibition (IC50) was put at 5.2 ± 0.4 µM. At TRPC6 (cells preincubated with 30 μM norgestimate), the “TRPC6-mediated Ca2+ influx following application of OAG” value is on record as “strongly reduced”. The “reversibility of current block in A7r5 cells” value in test [1] was “reversible”. Moreover, the “AVP-stimulated current blocked in A7r5 cells” value in test [1] (100 nM AVP, resting membrane potential (-60 mV), n=8) is reported as 86.5±6.0%. Moreover, the “fold more potent on TRPC3/6/7 subfamily members than on TRPC4/5 subfamily members” value in test [2] was “at least 4 fold”.
